Laboratory results: paper PMC12638379, “An innovative approach to development of new pyrazolylquinolin-2-one hybrids as dual EGFR and BRAF^V600E inhibitors” (Molecular Diversity, 2025)
Read-outs that look alike come from different tables or passages of the source.

Tested on: NCI 60 cancer cell lines
Experiment: NCI anticancer screening over a panel of 60 cancer cells, single concentration 10 µM
Type: cell-based, human
Conditions: Homo sapiens, read-out: Growth inhibition (GI %)
Outline: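 Primary single-dose screen at 10 µM over the NCI panel of 60 human tumour cell lines (leukemia, CNS, lung, colon, kidney, ovary, breast, prostate). The standard NCI Developmental Therapeutics Program protocol was used.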

Question: With `COc1ccc2[nH]c(=O)cc(-n3ncc(C(C)=O)c3C)c2c1` [Compound 2c, 4-(4-Acetyl-5-methyl-1H-pyrazol-1-yl)-6-methoxyquinolin-2(1H)-one] as the molecule, how does the inhibition at 10 µM (786-0, Renal cancer 786-0, 10 μM) read?
Answer: < 5%

Question: And the inhibition at 10 µM (A498, Renal cancer A498, 10 μM)?
Answer: < 5%

Question: What about the inhibition at 10 µM (A549, Non-small cell lung cancer A549/ATCC, 10 μM) of the same molecule?
Answer: < 5%

Question: What about the inhibition at 10 µM (ACHN, Renal cancer ACHN, 10 μM) of the same molecule?
Answer: < 5%

Question: And the inhibition at 10 µM (BT-549, Breast cancer BT-549, 10 μM)?
Answer: < 5%

Question: And the inhibition at 10 µM (CAKI-1, Renal cancer CAKI-1, 10 μM)?
Answer: 15.6%

Question: And the inhibition at 10 µM (CCRF-CEM, Leukemia CCRF-CEM, 10 μM)?
Answer: 5.28%

Question: And the inhibition at 10 µM (COLO 205, Colon cancer COLO 205, 10 μM)?
Answer: < 5%

Question: What about the inhibition at 10 µM (DU-145, Prostate cancer DU-145, 10 μM) of the same molecule?
Answer: < 5%

Question: What about the inhibition at 10 µM (EKVX, Non-small cell lung cancer EKVX, 10 μM) of the same molecule?
Answer: 6.27%

Question: And the inhibition at 10 µM (HCC 2998, Colon cancer HCC-2998, 10 μM)?
Answer: < 5%

Question: What about the inhibition at 10 µM (HCT-15, Colon cancer HCT-15, 10 μM) of the same molecule?
Answer: < 5%

Question: And the inhibition at 10 µM (HCT-116, Colon cancer HCT-116, 10 μM)?
Answer: 7.78%

Question: What about the inhibition at 10 µM (HL-60, Leukemia HL-60(TB), 10 μM) of the same molecule?
Answer: 12.5%

Question: What about the inhibition at 10 µM (HOP-62, Non-small cell lung cancer HOP-62, 10 μM) of the same molecule?
Answer: 18.8%

Question: What about the inhibition at 10 µM (HOP-92, Non-small cell lung cancer HOP-92, 10 μM) of the same molecule?
Answer: 31.6%

Question: And the inhibition at 10 µM (HT-29, Colon cancer HT29, 10 μM)?
Answer: < 5%

Question: And the inhibition at 10 µM (Hs-578T, Breast cancer HS 578T, 10 μM)?
Answer: < 5%

Question: And the inhibition at 10 µM (IGROV-1, Ovarian cancer IGROV1, 10 μM)?
Answer: < 5%

Question: And the inhibition at 10 µM (K562, Leukemia K-562, 10 μM)?
Answer: < 5%

Question: What about the inhibition at 10 µM (KM12, Colon cancer KM12, 10 μM) of the same molecule?
Answer: < 5%

Question: What about the inhibition at 10 µM (LOX IMVI, Melanoma LOX IMVI, 10 μM) of the same molecule?
Answer: 11.3%

Question: And the inhibition at 10 µM (Leukemia SR, 10 μM)?
Answer: 8.98%

Question: And the inhibition at 10 µM (MCF7, Breast cancer MCF7, 10 μM)?
Answer: < 5%

Question: What about the inhibition at 10 µM (MDA-MB-231, Breast Cancer MDA-MB 231/ATCC, 10 μM) of the same molecule?
Answer: 7%

Question: And the inhibition at 10 µM (MDA-MB-435, Melanoma MDA-MB-435, 10 μM)?
Answer: < 5%

Question: And the inhibition at 10 µM (MDA-MB-468, Breast cancer MDA-MB-468, 10 μM)?
Answer: < 5%

Question: And the inhibition at 10 µM (MOLT-4, Leukemia MOLT-4, 10 μM)?
Answer: < 5%

Question: What about the inhibition at 10 µM (Malme-3M, Melanoma MALME-3M, 10 μM) of the same molecule?
Answer: < 5%

Question: And the inhibition at 10 µM (Melanoma M14, 10 μM)?
Answer: < 5%

Question: And the inhibition at 10 µM (NCI-H23, Non-small cell lung cancer NCI-H23, 10 μM)?
Answer: < 5%

Question: And the inhibition at 10 µM (NCI-H226, Non-small cell lung cancer NCI-H226, 10 μM)?
Answer: 7.15%

Question: And the inhibition at 10 µM (NCI-H322M, Non-small cell lung cancer NCI-H322M, 10 μM)?
Answer: 7.11%

Question: And the inhibition at 10 µM (NCI-H460, Non-small cell lung cancer NCI-H460, 10 μM)?
Answer: < 5%

Question: What about the inhibition at 10 µM (NCI-H522, Non-small cell lung cancer NCI-H522, 10 μM) of the same molecule?
Answer: 8.32%

Question: And the inhibition at 10 µM (NCI/ADR-RES, Ovarian cancer NCI/ADR-RES, 10 μM)?
Answer: < 5%

Question: And the inhibition at 10 µM (OVCAR-3, Ovarian cancer OVCAR-3, 10 μM)?
Answer: < 5%

Question: And the inhibition at 10 µM (OVCAR-4, Ovarian cancer OVCAR-4, 10 μM)?
Answer: < 5%

Question: What about the inhibition at 10 µM (OVCAR-5, Ovarian cancer OVCAR-5, 10 μM) of the same molecule?
Answer: < 5%

Question: What about the inhibition at 10 µM (OVCAR-8, Ovarian cancer OVCAR-8, 10 μM) of the same molecule?
Answer: < 5%

Question: What about the inhibition at 10 µM (Prostate cancer PC-3, 10 μM) of the same molecule?
Answer: 13.4%

Question: What about the inhibition at 10 µM (RPMI-8226, Leukemia RPMI-8226, 10 μM) of the same molecule?
Answer: 11.7%

Question: What about the inhibition at 10 µM (RXF 393, Renal cancer RXF 393, 10 μM) of the same molecule?
Answer: < 5%

Question: What about the inhibition at 10 µM (SF-268, CNS Cancer SF-268, 10 μM) of the same molecule?
Answer: < 5%

Question: What about the inhibition at 10 µM (SF-295, CNS Cancer SF-295, 10 μM) of the same molecule?
Answer: < 5%

Question: What about the inhibition at 10 µM (SF-539, CNS Cancer SF-539, 10 μM) of the same molecule?
Answer: < 5%

Question: What about the inhibition at 10 µM (SK-MEL-2, Melanoma SK-MEL-2, 10 μM) of the same molecule?
Answer: < 5%

Question: What about the inhibition at 10 µM (SK-MEL-5, Melanoma SK-MEL-5, 10 μM) of the same molecule?
Answer: < 5%

Question: And the inhibition at 10 µM (SK-MEL-28, Melanoma SK-MEL-28, 10 μM)?
Answer: < 5%

Question: What about the inhibition at 10 µM (SK-OV-3, Ovarian cancer SK-OV-3, 10 μM) of the same molecule?
Answer: 7.83%

Question: And the inhibition at 10 µM (SN12C, Renal cancer SN12C, 10 μM)?
Answer: < 5%

Question: What about the inhibition at 10 µM (SNB-19, CNS Cancer SNB-19, 10 μM) of the same molecule?
Answer: < 5%

Question: What about the inhibition at 10 µM (SNB-75, CNS Cancer SNB-75, 10 μM) of the same molecule?
Answer: 11.8%

Question: What about the inhibition at 10 µM (SW-620, Colon cancer SW-620, 10 μM) of the same molecule?
Answer: < 5%

Question: What about the inhibition at 10 µM (T47D, Breast cancer T-47D, 10 μM) of the same molecule?
Answer: 9.18%

Question: What about the inhibition at 10 µM (TK-10, Renal cancer TK-10, 10 μM) of the same molecule?
Answer: < 5%

Question: And the inhibition at 10 µM (U-251, CNS Cancer U251, 10 μM)?
Answer: 5.38%

Question: And the inhibition at 10 µM (UACC-62, Melanoma UACC-62, 10 μM)?
Answer: < 5%

Question: What about the inhibition at 10 µM (UACC-257, Melanoma UACC-257, 10 μM) of the same molecule?
Answer: < 5%

Question: What about the inhibition at 10 µM (UO-31, Renal cancer UO-31, 10 μM) of the same molecule?
Answer: 34.4%
